Results on three compounds are retold here after paper PMC8245078, “Development of novel benzofuran-isatin conjugates as potential antiproliferative agents with apoptosis inducing mechanism in Colon cancer” (Journal of Enzyme Inhibition and Medicinal Chemistry, 2021).

pIC50: −log10 of the molar value.

Assay type in all cases: cell-based, human
One assay has as its system SW-620 cells. The assay can be described thus: Annexin V-FITC/propidium iodide apoptosis assay. The following applies: for total increase in apoptosis vs control untreated cells: 24 h; for induction of apoptosis (in words): SW-620, 5 and 10 µM; for total increase in apoptosis vs control untreated cells, range: SW-620, over the concentrations 5 and 10 µM. The method, then:
Further investigation for compounds 5a and 5d concerning their potential role of apoptosis induction, using Annexin V-FITC/PI double staining assay, was performed to evaluate their impact on both early and late apoptosis percentages in SW-620 cancer cell lines (Figure 6). […] As shown, compound 5a induced approximately 1.7-folds and 3.8-folds total increase in apoptosis at concentration of 5 µM and 10 µM, respectively, in comparison to the control untreated SW-620 cell line (Figure 6(A)).
Figure 6. (A) AnnexinV/PI apoptosis assay for compound 5a. Tow concentrations (5 and 10 µM) of compound 5a, in addition untreated plate as a control were used to test the apoptotic effect by using Annexin V/PI in SW-620 cell line. Cells were treated with the compound 5a for 24 h. (B) AnnexinV/PI apoptosis assay for compound 5d. Tow concentrations (5 and 10 µM) of compound 5d, in addition untreated plate as a control were used to test the apoptotic effect by using Annexin V/PI in SW-620 cell line. Cells were treated with the compound 5d for 24 h. […] Their printed values are 1.93%, 2.06%, 1.81% in panel A and 0.73%, 2.01%, 1.62% in panel B. […]
2.4. Measurement of Apoptosis by Annexin V-FITC/PI Assay
Induction of apoptosis was measured by Dead Cell Apoptosis Kit with Annexin V FITC and PI, for flow cytometry (Thermofischer scientific, OR, USA) according to the manufacturer’s instruction. SW620 cells were seeded in a 6-well plate (3 × 10^5 cells per well) and treated with the various compound for 24h. Both floating and adherent cells were harvested, pooled together, and incubated with Annexin V-FITC and PI for 15 min on ice in dark. The cells were analyzed by BD FACSCalibur™ cell analyzer (BD Biosciences, CA, USA) at an emission of 530 nm (FL1 channel) and >575 nm (FL3). […]

In assay [1] the test system is SW-620 colorectal cancer cell line. The assay can be described thus: MTT cell viability assay. The following applies: for inhibition of SW-620 cancer cells viability: 10 µM, 24 h, MTT. As for the experimental part: (§1) In the present investigation a new set of benzofuran–isatin hybrids (5a–e and 7a–i) was synthesised to be evaluated for their potential anticancer activity towards two human colorectal cancer cell lines, SW-620 and HT-29. […] Both, SW-620 and HT-29 cells were treated with 10 µM of each compound for 24 h and the percent cell viability was calculated using MTT assay.
(§2) For this reason, compounds 5a and 5d were pursued for further studies. Starting with determination of IC50s and cytotoxic selectivity studies. Serial concentrations of compounds 5a and 5d were used to examine their impact on cell viability using MTT protocol. Results of concentration vs percent viability were charted, and the IC50 was calculated for SW-620 and HT-29 cell lines using Graph Pad prism 8 (Figure 4). […]
(§3) [(Ti-Tz)/Tz] x 100 for concentrations for which Ti<Tz […]
(§4) SW620 and HT29 colorectal cancer cell lines and HFF-1 fibroblast (ATCC, Rockville, USA) were used. HT29 cells were cultured and maintained in Dulbecco’s Modified Eagles Medium (DMEM) (GIBCO, by Thermo Fischer Scientific, NY, USA) supplemented with 10% fetal bovine serum (FBS), 100 units/mL penicillin, and 100 μg streptomycin. SW620 and HFF-1 cells were cultured in Roswell Park Memorial Institute medium (RPMI-1640) (GIBCO, by Thermo scientific, NY, USA) supplemented with 10% FBS and 1% penicillin and streptomycin (Napolitano et al., 2015). All cultures were incubated at 37 °C and humidified atmosphere of 5% […]
(§5) 2.3. Cell Viability Assay
(§6) The cytotoxicity effect of compounds on the colorectal cancer cell lines, SW620 and HT29 in addition to the normal human fibroblasts was measured by MTT (3-(4, 5-dimethylthiazol-2-yl)-2,5-diphenyltetrazolium bromide) (Sigma-Aldrich, St. Louis, MO, USA) as previously described. Briefly, cells were seeded in 96 well culture plates at 5000/well for HT29 and 10,000/well for SW620 for 24 h. Cells were then incubated with different compounds from WAG1 series (1-15) 24h at 37 °C and humidified 5% CO2 incubator. Freshly prepared 10 μl of 3-(4,5-dimethylthiazol-2-yl)-2,5-diphenyltetrazolium bromide (MTT 5 mM) solution were added to the cells and further incubated for 2 h. Thereafter, 100 μl of dimethyl sulfoxide (DMSO) were added in each well and the crystals were dissolved through careful pipetting. In certain experiment, cells were treated different concentration of 5FU for 72 h. The absorbance of the product was measured at 540 nm using a Synergy™ 2 multi-mode microplate reader (Biotech, VA, USA). The experiments were performed in triplicate for each condition. […]
(§7) The total protein concentration was evaluated by the colorimetric
(§8) Bradford protein assay (BIO-RAD inc, CA, USA) at 595 nm absorbance. Lysates were loaded in […]

Assay [2] concerns HT-29 colorectal cancer cell line. As to the kind of experiment: MTT cell viability assay. The following applies: for inhibition of HT-29 cancer cells viability: 10 µM, 24 h, MTT. As for the experimental part: as §1, §2, §3, §4, §5
as §6, with “pipetting.” for “pipetting. In certain experiment, cells were treated different concentration of 5FU for 72 h. The absorbance of the product was measured at 540 nm using a Synergy™ 2 multi-mode microplate reader (Biotech, VA, USA). The experiments were performed in triplicate for each condition.”
VA, USA). The experiments were performed in triplicate for each condition. […]
as §7, §8

The mark [3] stands for this setting: Homo sapiens, SW-620, SW-620, MTT.
Where [4] appears, read: Homo sapiens, HT-29, HT-29, MTT.

With `Cc1c(C(=O)N/N=C2\C(=O)Nc3ccccc32)oc2ccccc12` [Compound 5a], the “total increase in apoptosis vs control untreated cells” value in the assay with SW-620 cells (SW-620, 5 µM) is on record as “approximately 1.7 folds”; in the assay with SW-620 cells (SW-620, 10 µM), roughly 3.8 folds. In addition, in the assay with SW-620 cells, the “induction of apoptosis (in words)” value is reported as “dose dependent induction of apoptosis”. For the same compound, the “total increase in apoptosis vs control untreated cells, range” value with SW-620 cells is recorded as 1.7–3.8 folds. The “inhibition of SW-620 cancer cells viability” value in assay [1] was 46%. Further, the pIC50 in assay [1] (setting [3]) was 5.06; in assay [1] (SW-620, MTT), 5.03; in assay [2] (HT-29, MTT) it was 5.06; in assay [2] (setting [4]), 5.03. Further, the “inhibition of HT-29 cancer cells viability” value in assay [2] was greater than 50%.
Regarding `CCCN1C(=O)/C(=N\NC(=O)c2oc3ccccc3c2C)c2ccccc21` [Compound 7b], the “inhibition of HT-29 cancer cells viability” value in assay [2] is on record as greater than 50%.
For the compound `COc1ccc2c(c1)/C(=N/NC(=O)c1oc3ccccc3c1C)C(=O)N2` [Compound 5d], the “total increase in apoptosis vs control untreated cells” value with SW-620 cells (SW-620, 5 µM) was roughly 2.9 folds; in the assay on SW-620 cells (SW-620, 10 µM), roughly 3.8 folds. In addition, the “induction of apoptosis (in words)” value in the assay with SW-620 cells is on record as “dose dependent induction of apoptosis”. Besides, the “total increase in apoptosis vs control untreated cells, range” value in the assay with SW-620 cells was 2.9–3.8 folds. For the same compound, the “inhibition of SW-620 cancer cells viability” value in assay [1] is “about 52%”. The pIC50 in assay [1] (setting [3]) is 5.19; in assay [1] (SW-620, MTT), 5.01; in assay [2] (HT-29, MTT) it was 5.19; in assay [2] (setting [4]), 5.01. Besides, the “inhibition of HT-29 cancer cells viability” value in assay [2] is greater than 50%.
